Experimental data published in patent US12070455B2, “Thienopyrrole compounds” (Gilead Sciences, Inc., priority 2021, dated 2024).

How the values were obtained:
TLR7 = target: T1, TLR7 (Homo sapiens, UniProt Q9NYK1); experiment: TLR7 human peripheral blood mononuclear cell (PBMC) cell-based assay; conditions: human PBMCs; 1 h with test antagonist, then TLR7 agonist GS-986 400 nM for 6 h; cytokines (IL-6 and IFNα) in supernatant; read-out: TLR-7 EC50
T1 construct: Human peripheral blood mononuclear cells (PBMCs) consist of lymphocytes, monocytes and dendritic cells that express TLR7, TLR8 and TLR9; endogenous in cells; host or cells: cryopreserved human PBMCs from healthy donors
T1 sequence (Q9NYK1 27-1049): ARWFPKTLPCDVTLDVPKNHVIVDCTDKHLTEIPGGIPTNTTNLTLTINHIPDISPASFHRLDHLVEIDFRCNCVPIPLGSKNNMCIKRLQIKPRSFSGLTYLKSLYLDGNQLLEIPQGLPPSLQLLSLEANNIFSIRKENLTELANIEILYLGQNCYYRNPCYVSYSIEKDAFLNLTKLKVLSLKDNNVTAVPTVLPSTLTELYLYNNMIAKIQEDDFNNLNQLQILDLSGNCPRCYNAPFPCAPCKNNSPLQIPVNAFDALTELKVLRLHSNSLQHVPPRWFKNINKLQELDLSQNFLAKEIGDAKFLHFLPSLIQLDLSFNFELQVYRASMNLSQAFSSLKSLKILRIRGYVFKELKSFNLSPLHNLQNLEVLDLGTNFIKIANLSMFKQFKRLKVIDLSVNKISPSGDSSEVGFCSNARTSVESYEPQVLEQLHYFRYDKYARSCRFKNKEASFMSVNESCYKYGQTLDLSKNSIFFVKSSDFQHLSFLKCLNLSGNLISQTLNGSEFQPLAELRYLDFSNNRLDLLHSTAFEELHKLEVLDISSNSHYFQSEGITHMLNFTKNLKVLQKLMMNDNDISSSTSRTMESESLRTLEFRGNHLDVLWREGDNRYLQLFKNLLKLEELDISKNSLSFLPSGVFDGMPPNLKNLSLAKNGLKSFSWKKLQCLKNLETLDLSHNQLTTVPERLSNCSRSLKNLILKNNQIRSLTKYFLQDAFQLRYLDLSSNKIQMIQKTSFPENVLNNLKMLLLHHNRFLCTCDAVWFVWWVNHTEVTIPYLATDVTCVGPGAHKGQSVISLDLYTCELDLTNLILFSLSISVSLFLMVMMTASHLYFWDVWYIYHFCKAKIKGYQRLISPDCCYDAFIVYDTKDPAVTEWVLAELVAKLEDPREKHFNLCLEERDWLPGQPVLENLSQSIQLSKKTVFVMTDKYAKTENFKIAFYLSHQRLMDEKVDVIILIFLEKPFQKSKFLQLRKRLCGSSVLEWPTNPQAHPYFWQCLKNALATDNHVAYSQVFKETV
Text: TLR7/9 Human Peripheral Blood Mononuclear Cell (PBMC) Cell-Based Assay
Human peripheral blood mononuclear cells (PBMCs) consist of lymphocytes, monocytes and dendritic cells that express TLR7, TLR8 and TLR9. These cells respond to TLR7, TLR8 and TLR9 ligand stimulation and produce cytokines and chemokines in vitro and in vivo. Human PBMCs are therefore suitable to be used in a cell-based assay to assess the in vitro potency of a TLR 7, 8, and/or 9 antagonist.
Cryopreserved human PBMCs from healthy donors were thawed and resuspended in RPMI-1640 media with L-glutamine (Corning) supplemented with 10% Fetal Bovine Serum (Hyclone) and 1× Penicillin-Streptomycin (Corning). After counting, the cell density was adjusted to 2 million cells/ml and incubated for 1 hour at 37° C., 5% CO2 for recovery. Following the recovery, the cells were plated by adding 50 μl per well (100,000 cells) to 384-well cell culture plates (Greiner) containing 250 nl of test antagonists in 100% DMSO per well, in a 10 points dose response in quadruplicates. PBMCs were incubated in the presence of test antagonists for one hour at 37° C., 5% CO2 before being stimulated with a TLR7 or TLR9 agonist. GS-986 (Gilead Sciences) was used as the TLR7 agonist at a final concentration of 400 nM. ODN-2216 (InvivoGen) was used as the TLR9 agonist at a final concentration of 3 μM. PBMCs were incubated in the presence of the test antagonist and the TLR7 (or TLR9) agonist for an additional 6 hours at 37° C., 5% CO2. At the end of the incubation, the cell culture plates were centrifuged at 500 g for 5 min, and the cell culture supernatant was collected. The level of cytokines (IL-6 and IFNα) in the supernatant was measured by electrochemiluminescence immunoassays (Mesoscale Discovery) following manufacturer's recommended protocols. The level of cytokine measured was plotted against the test antagonist concentration and fitted to a sigmoidal function to determine the EC50, which are shown below in Table 6.

TLR8 = target: T2, TLR8 (Homo sapiens, UniProt Q9NR97); experiment: TLR8 human peripheral blood mononuclear cell (PBMC) cell-based assay; conditions: human PBMCs; 1 h with antagonist, then TLR8 agonist Compound A 800 nM for 6 h; cytokines (TNFa and IL12p40) in supernatant; read-out: TLR-8 EC50
T2 construct: Human peripheral blood mononuclear cells (PBMCs) consist of lymphocytes, monocytes and dendritic cells that express TLR7, TLR8 and TLR9; endogenous in cells; host or cells: cryopreserved human PBMCs from healthy donors
T2 sequence (Q9NR97 27-1041): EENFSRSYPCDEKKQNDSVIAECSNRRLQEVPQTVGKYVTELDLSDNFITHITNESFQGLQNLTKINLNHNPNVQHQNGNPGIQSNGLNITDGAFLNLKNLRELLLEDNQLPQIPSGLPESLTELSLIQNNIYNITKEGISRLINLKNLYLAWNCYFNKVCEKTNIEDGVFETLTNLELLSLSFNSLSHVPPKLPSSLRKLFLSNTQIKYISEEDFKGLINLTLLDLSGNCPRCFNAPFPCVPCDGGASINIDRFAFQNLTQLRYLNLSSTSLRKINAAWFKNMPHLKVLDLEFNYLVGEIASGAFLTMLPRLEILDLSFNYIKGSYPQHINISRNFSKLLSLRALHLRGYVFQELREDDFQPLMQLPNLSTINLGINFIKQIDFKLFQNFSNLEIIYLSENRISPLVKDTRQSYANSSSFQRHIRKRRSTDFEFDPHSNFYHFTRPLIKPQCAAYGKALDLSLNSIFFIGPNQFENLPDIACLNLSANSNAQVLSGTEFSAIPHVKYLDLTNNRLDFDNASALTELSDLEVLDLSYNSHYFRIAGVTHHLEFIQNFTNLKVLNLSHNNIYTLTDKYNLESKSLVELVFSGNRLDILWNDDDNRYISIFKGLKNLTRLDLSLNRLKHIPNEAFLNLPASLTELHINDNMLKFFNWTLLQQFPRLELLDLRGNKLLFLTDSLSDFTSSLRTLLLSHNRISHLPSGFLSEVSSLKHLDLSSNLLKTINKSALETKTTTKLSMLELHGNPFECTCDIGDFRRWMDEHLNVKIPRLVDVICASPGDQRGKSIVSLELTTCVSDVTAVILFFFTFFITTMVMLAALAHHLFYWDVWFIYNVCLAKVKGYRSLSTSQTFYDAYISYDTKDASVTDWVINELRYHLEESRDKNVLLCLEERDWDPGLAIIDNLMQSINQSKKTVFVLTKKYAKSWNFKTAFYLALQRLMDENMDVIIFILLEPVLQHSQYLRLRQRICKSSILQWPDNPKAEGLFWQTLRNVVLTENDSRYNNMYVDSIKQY
Protocol: TLR8 Human Peripheral Blood Mononuclear Cell (PBMC) Cell-Based Assay
Cryopreserved human PBMCs from healthy donors were thawed and resuspended in RPMI-1640 media with L-glutamine (Corning) supplemented with 10% Fetal Bovine Serum (Hyclone) and 1× Penicillin-Streptomycin (Corning). After counting, the cell density was adjusted to 2 million cells/ml and incubated for 1 hour at 37° C., 5% CO2 for recovery. Following the recovery, the cells were plated by adding 50 μl per well (100,000 cells) to 384-well cell culture plates (Greiner) containing 250 nl of test antagonists in 100% DMSO per well, in a 10 points dose response in quadruplicates. PBMCs were incubated in the presence of antagonists for one hour at 37° C., 5% CO2 before being stimulated with TLR8 agonist. Compound A (Gilead Sciences, U.S. Pat. No. 10,285,990) was used as the TLR8 agonist at a final concentration of 800 nM. PBMCs were incubated in the presence of antagonist and the TLR8 agonist for an additional 6 hours at 37° C., 5% CO2. At the end of the incubation, the cell culture plates were centrifuged at 500 g for 5 min, and the cell culture supernatant was collected. The level of cytokines (TNFa and IL12p40) in the supernatant was measured by electrochemiluminescence immunoassays (Mesoscale Discovery) following manufacturer's recommended protocols. The level of cytokine measured was plotted against the antagonist concentration and fitted to a sigmoidal function to determine the EC50, which are shown below in Table 6.

EC50 (TLR7) [nM]	EC50 (TLR8) [nM]	SMILES
0.14	5.42	CO[C@@H]1CN[C@@H](C(=O)N2CCC(c3sc4[nH]c(-c5cn6ncnc6c6c5CCC6)c(C(C)C)c4c3C)CC2)C1 [Example 19]
4.63	22.3	Cc1c(C2CCN(C(=O)C3(N4CCOCC4)CC3)CC2)sc2[nH]c(-c3cn4ncnc4c4c3CCC4)c(C(C)C)c12 [Example 20]
0.51	1.32	Cc1c(-c2ccc(N3CCNCC3)cc2)sc2[nH]c(-c3cn4ncnc4c4c3CCC4)c(C(C)C)c12 [Example 21, 5-(8,9-dihydro-7H-cyclopenta[c][1,2,4]triazolo[1,5-a]pyridin-6-yl)-4-isopropyl-3-methyl-2-(4-(piperazin-1-yl)phenyl)-6H-thieno[2,3-b]pyrrole]
0.23	0.66	Cc1c(-c2ccc(N3CCNCC3)nc2)sc2[nH]c(-c3cn4ncnc4c4c3CCC4)c(C(C)C)c12 [Example 22]
0.94	0.21	Cc1c(-c2cn(C3CCNCC3)nn2)sc2[nH]c(-c3cn4ncnc4c4c3CCC4)c(C(C)C)c12 [Example 24]
0.05	1.38	Cc1c(C2CCN(C(=O)[C@H]3C[C@@]4(CNCCO4)C3)CC2)sc2[nH]c(-c3cn4ncnc4c4c3CCC4)c(C(C)C)c12 [Example 25]
0.26	2.55	Cc1c(C2CCC(N3CC4(CCNC4=O)C3)CC2)sc2[nH]c(-c3cn4ncnc4c4c3CCC4)c(C(C)C)c12 (stereo not drawn) [Example 27]
0.15	1.57	Cc1c(C2CCC(N3CC(C)(O)C3)CC2)sc2[nH]c(-c3cn4ncnc4c4c3CCC4)c(C(C)C)c12 (stereo not drawn) [Example 28]
0.1	1	Cc1c(C2CCC(N3CC4(COC4)C3)CC2)sc2[nH]c(-c3cn4ncnc4c4c3CCC4)c(C(C)C)c12 (stereo not drawn) [Example 29]
0.86	1.29	Cc1c(C2CCC(N3CC4(CCN(C)C4=O)C3)CC2)sc2[nH]c(-c3cn4ncnc4c4c3CCC4)c(C(C)C)c12 (stereo not drawn) [Example 30]
1.33	6.38	Cc1c(C2CCN(C(=O)[C@H]3C[C@@H](O)CN3)CC2)sc2[nH]c(-c3cn4ncnc4c4c3CCC4)c(C(C)C)c12 [Example 31]
1.5	11.3	Cc1c(C2CCN(C(=O)[C@H]3C[C@H](O)CN3)CC2)sc2[nH]c(-c3cn4ncnc4c4c3CCC4)c(C(C)C)c12 [Example 32]
2.33	7.57	CC(C)c1c(-c2cn3ncnc3c3c2CCC3)[nH]c2sc(C3CCN(C(=O)[C@H]4COCCN4)CC3)cc12 [Example 33]
0.58	1.57	CC(C)c1c(-c2cn3ncnc3c3c2CCC3)[nH]c2sc(C3CCN(CC(N)=O)CC3)cc12 [Example 34]
0.33	7.88	Cc1c(C2CCNCC2)sc2[nH]c(-c3cn4ncnc4c4c3CCO4)c(C(C)C)c12 [Example 35]
4.5	27.6	Cc1c(C2CCN(CC(N)=O)CC2)sc2[nH]c(-c3cn4ncnc4c4c3CCO4)c(C(C)C)c12 [Example 36]
2.95	24.5	Cc1c(C2CCN(C(=O)[C@H]3COCCN3)CC2)sc2[nH]c(-c3cn4ncnc4c4c3CCO4)c(C(C)C)c12 [Example 37]
0.58	0.81	Cc1c([C@@H]2C[C@@H]3C[C@H]2CN3CC(N)=O)sc2[nH]c(-c3cn4ncnc4c4c3CCO4)c(C(C)C)c12 [Example 38]
3.4	5.01	Cc1c(C2CCN(C(=O)[C@@H]3C[C@H](C(F)(F)F)CN3)CC2)sc2[nH]c(-c3cn4ncnc4c4c3CCC4)c(C(C)C)c12 [Example 39]
0.49	2.56	CC(C)c1c(-c2cn3ncnc3c3c2CCC3)[nH]c2sc(C(=O)N(C)C3CCNCC3)cc12 [Example 41, 5-(8,9-dihydro-7H-cyclopenta[c][1,2,4]triazolo[1,5-a]pyridin-6-yl)-4-isopropyl-N-methyl-N-(piperidin-4-yl)-6H-thieno[2,3-b]pyrrole-2-carboxamide]
0.78	0.69	CC(C)c1c(-c2cn3ncnc3c3c2CCC3)[nH]c2sc(C(=O)N3CCNCC3)cc12 [Example 42]
